Assay: Solubility test: amount of cyclohexanol (CHA) added until the varnish became clouded
Type: physicochemical
Settings: varnish of arylsulfonic acid compound with PTA (0.5 molar equivalents; 1.0 for NSO-2) in 1 g DMI, solid content 7.0 wt %; amount of CHA when the varnish became clouded
Procedure: The arylsulfonic acid compounds obtained in the above Examples 1 to 4 and Comparative Example 1 were subjected to a solubility test in solvent according to the following procedure.
The respective arylsulfonic acid compounds obtained in Examples 1 to 4 and 0.5 molar equivalents of PTA, relative to the compound, were dissolved in 1 g of 1,3-dimethyl-2-imidazolidinone (hereinafter abbreviated as DMI) so that the solid content was set at 7.0 wt %, thereby preparing varnishes.
Cyclohexanol (hereinafter abbreviated as CHA) was added to the resulting varnish to determine, as an index for solubility, an amount of CHA at the time when the varnish became clouded.
NSO-2 obtained in Comparative Example 1 and 1.0 molar equivalent of PTA, relative to NSO-2, were dissolved in 1 g of DMI so that the solid content was set at 7.0 wt %, thereby preparing a varnish.
CHA was added to the resulting varnish to determine, as an index for solubility, an amount of CHA at the time when the varnish became clouded.

Structure (SMILES) | Amount of dissolution in CHA
N#Cc1c(F)c(F)c(Oc2cc(S(=O)(=O)O)cc3cc(S(=O)(=O)O)ccc23)c(F)c1F [Example 4FNS-2, Cyanoperfluorotoluenesulfonic acid compound] | >10 g
O=S(=O)(O)c1ccc2c(Oc3c(F)c(F)c(-c4c(F)c(F)c(Oc5cc(S(=O)(=O)O)cc6cc(S(=O)(=O)O)ccc56)c(F)c4F)c(F)c3F)cc(S(=O)(=O)O)cc2c1 [NSO-2, Naphthalenedisulfonic acid compound, reference compound] | 3.3 g
O=S(=O)(O)c1ccc2c(Oc3c(F)c(F)c(C(F)(F)C(F)=C(F)F)c(F)c3F)cc(S(=O)(=O)O)cc2c1 [Example 9FNS-1, Perfluoroallylbenzene naphthalenesulfonic acid compound] | >10 g
O=S(=O)(O)c1ccc2c(Oc3c(F)c(F)c(C(F)(F)F)c(F)c3F)cc(S(=O)(=O)O)cc2c1 [Example 7FNS-1, Perfluorotoluene naphthalenesulfonic acid compound] | >10 g
N#Cc1c(F)c(F)c(Oc2cc(S(=O)(=O)O)cc3cc(S(=O)(=O)O)ccc23)c(F)c1C#N [Example 3FNS-1, Dicyanoperfluorotoluenesulfonic acid compound] | 8.0 g
